Laboratory results from patent US12673918B2, “Small molecule RPN13 inhibitors with antitumor properties” (The Johns Hopkins University, priority 2019, dated 2026).
Read-outs that look alike come from different tables or passages of the source.

Tests used:
CaSki = experiment: MTT cytotoxicity assay, CaSki
intracellular GSH = experiment: Total GSH assay, ES2 cells; type: cell-based, human; settings: ES2, 12 hr
Excerpt: FIG. 16B illustrates ES2 cells treated with compounds for 12 hr and the total GSH level assayed.
Recent insights indicate that ER stress and oxidative stress are highly interrelated biological process which regulate a wide range of signaling pathways in cells. […] Oxidative stress is characterized by an imbalance between the production of ROS and the availability of free GSH. Generation of ROS is considered an early event in the process of apoptotic cell death (68). To counteract ROS, cells upregulate antioxidant pathways including intracellular glutathione (GSH).
Luciferase and GSH assays: Sub-confluent cultures of cells were transfected with 4Ub-FL or FL plasmid using Lipofectamine 2000 reagent (Life Technologies). Cells were seeded at 10,000 cells/well in 96-wells plate 48 hr post transfection and incubated with compounds or vehicle (DMSO) at the doses and times indicated. Luciferase activity in cell lysate was determined with a luciferase assay kit (Promega) according to the manufacturer's instructions. Bioluminescence was measured by using a Glomax Multidetection system (Promega). Glutathione was assayed using the Promega GSH assay kit (V6611).

PEO4 = experiment: cells; settings: PEO4, read-out: cytotoxicity IC50 PEO4
Procedure: (§1) Cell lines and cytotoxicity assays: All cell lines were obtained from the American Type Culture Collection (ATCC) and cultured in the specified medium supplemented with 10% fetal bovine serum, 100 IU/mL penicillin, and 100 μg/mL streptomycin at 37° C. in a humidified 5% CO2/95% air incubator. […] To assess drug cytotoxicity, cells were seeded at 2,500 cells/well (10,000 cells/well for MM lines) in 100 μL medium in 96-well plate and after 24 treated with compounds for 72 h, incubated according to the manufacturer's protocol with the Thiazolyl Blue Tetrazolium Bromide (Sigma, M2128) and A570 measured using a Benchmark Plus microplate spectrophotometer (BIO-RAD). IC50 data was analyzed by Graphpad Prism software. In the chirality studies the cells were treated with compounds for 48 h, and the cells were incubated and measured via the preceeding protocols.

DLD-Seckle = experiment: MTT cytotoxicity assay, DLD-Seckle; settings: read-out: cytotoxicity IC50 DLD-Seckle
Procedure: as §1

ROS = ROS by Amplex Red, ES2 cells; type: cell-based, human; settings: ES2, 12 hr; listed in order of potency
Procedure: FIG. 16C illustrates ES2 cells treated for 12 hr with compounds (or as a positive control, H2O2) at the indicated doses, and then reactive oxygen species (i.e. ROS) levels measured by adding Amplex Red and HRP.
Amplex Red Assay to measure ROS: Amplex Red reagent (#A12222, Thermo Scientific) combined with horseradish peroxidase (HRP) was used to detect H2O2. Briefly cells were treated in 96 well plates with corresponding compounds at indicated times. Next 50 μM Amplex® Red reagent plus 1 U/mL HRP in 50 mM sodium phosphate buffer, pH 7.4, were added to cells and incubated for 30 minutes at room temperature. Fluorescence was measured with a fluorescence-based microplate reader using excitation at 530±12.5 nm and detection at 580±25 nm. Background fluorescence of 969 units for Amplex® Red reagent, determined for a no-H2O2 control reaction, was subtracted from each value. H2O2 treatment (1 h) was used as positive control.

intracellular ATP = experiment: Luciferase-based ATP measurement, ES2 cells; type: cell-based, human; settings: luciferase expressing ES2 cells, 4 hr, sublethal doses
Procedure: Briefly, firefly luciferase expressing ES2 cells were treated for 4 hr with compounds at sublethal doses and the bioluminescence was measured in intact cells using luminometer by adding luciferin. […] This is associated with enhanced glycolysis while bortezomib suppresses oxidative phosphorylation (OXPHOS) (66).
ATP measurement assay: To measure ATP levels in cells, luciferase based bioluminescence assay was performed. Briefly cells stably expressing firefly luciferase plated in a 6 well plate (250,000 cells/well) in growth medium. After 24 h incubation, cells were treated with compounds at indicated concentrations for the period of 4 h and the bioluminescence was measured by IVIS 200 imager in intact cells by adding luciferin substrate to the growth medium. Cell viability was assessed in parallel using an MTT assay.

BR5-FvB1 = experiment: MTT cytotoxicity assay, BR5-FvB1; settings: Mus musculus, read-out: cytotoxicity IC50 BR5-FvB1
Procedure: as §1

FaDu = experiment: cells; settings: Homo sapiens
TOV21G = experiment: MTT cytotoxicity assay, TOV21G
CHOP-10 mRNA = experiment: RT-qPCR of CHOP-10 mRNA, ES2 cells; type: cell-based, human; settings: ES2, 0.5 μM, 12 hr
Procedure: FIG. 7A illustrates ES2 cells (250,000 cells/well) treated with compounds at 1 μM for 12 hr and mRNA was isolated. Samples were subjected to RT-qPCR to measure CHOP10 and mRNA levels normalized to GAPDH expression. Significance versus DMSO control (ns=not significant, ** <0.01, *** <0.001, **** <0.0001).
FIG. 16A illustrates ES2 cells treated with compounds (0.5 μM) for 12 hr and CHOP-10 mRNA levels, an ER stress marker, which was analyzed by qRT-PCR.
Q-PCR to measure mRNA levels: Total RNA was isolated from cells using the RNeasy mini kit (Qiagen) according to the manufacturer's instructions. Extracted RNA was normalized for concentration and reverse transcribed using an iScript cDNA synthesis kit (Bio-Rad) according to the manufacturer's instructions. CHOP10 expression levels were measured by Taqman gene expression assays with Taqman gene expression master mix (Applied Biosystems) and run with a standard thermal cycling protocol. Spliced XBP1 mRNA was assayed with SsoFast EvaGreen Supermix (Bio-rad) following the protocol for the iCycler System using as primers: F: 5′-[…]-3′ and R: 5′-[…]-3′. Calculations were done according to the Livak method and normalized to the reference gene GAPDH. Each condition was replicated three times; each sample was run in triplicate.

SiHa = experiment: MTT cytotoxicity assay, SiHa
HS578T = experiment: MTT cytotoxicity assay, HS578T
HCT116 ARID1A^-/- = experiment: MTT cytotoxicity assay, HCT116 ARID1A knockout; type: cell-based, human; settings: for IC50: Homo sapiens, read-out: IC50 HCT116 ARID1A^-/-
Excerpt: Loss of ARID1A function is a common driver of ovarian and some other cancer types, and it confers vulnerability to inhibition of GSH (36).

ID8-vegf = experiment: MTT cytotoxicity assay, ID8-vegf; settings: read-out: cytotoxicity IC50 ID8-vegf, Tables 3A/4B/4C
MM.1S = experiment: MTT cytotoxicity assay, MM.1S; type: cell-based; settings: Homo sapiens, MM1.S, read-out: IC50 MM.1S
Procedure: The cytotoxic efficacy of selected compounds was assessed against multiple myeloma (MM) cell lines, as this is a validated clinical target for the licensed proteasome inhibitors.
Cell lines and cytotoxicity assays: All cell lines were obtained from the American Type Culture Collection (ATCC) and cultured in the specified medium supplemented with 10% fetal bovine serum, 100 IU/mL penicillin, and 100 μg/mL streptomycin at 37° C. in a humidified 5% CO2/95% air incubator. […] To assess drug cytotoxicity, cells were seeded at 2,500 cells/well (10,000 cells/well for MM lines) in 100 μL medium in 96-well plate and after 24 treated with compounds for 72 h, incubated according to the manufacturer's protocol with the Thiazolyl Blue Tetrazolium Bromide (Sigma, M2128) and A570 measured using a Benchmark Plus microplate spectrophotometer (BIO-RAD). IC50 data was analyzed by Graphpad Prism software.

PC3 = experiment: MTT cytotoxicity assay, PC3; settings: Homo sapiens
[1] = read-out: cytotoxicity IC50 CasKi, Tables 3A/4B/4C, MTT assay
[2] = read-out: cytotoxicity IC50 FaDu
[3] = read-out: cytotoxicity IC50 TOV21G, Tables 3A/4B/4C, MTT assay
[4] = read-out: cytotoxicity IC50 SiHa, Tables 3A/4B/4C, MTT assay
[5] = read-out: cytotoxicity IC50 HS578T, Tables 3A/4B/4C, MTT assay
[6] = HCT-116, Table 3, MTT, 48 hr, Colon
[7] = read-out: IC50 TOV21G, Table 3, MTT, 48 hr, Ovarian
[8] = PC-3, read-out: cytotoxicity IC50 PC3

Row | Compound | IC50 (CaSki; [1]) [nM] | intracellular GSH concentrations (intracellular GSH) | IC50 (PEO4) [nM] | IC50 (DLD-Seckle) [nM] | level of ROS (Amplex Red) (ROS) | ATP-dependent bioluminescence (intracellular ATP levels) (intracellular ATP) | IC50 (BR5-FvB1) [nM] | IC50 (FaDu; [2]) [nM] | IC50 (TOV21G; [3]) [nM] | CHOP10 transcript levels (CHOP-10 mRNA) | IC50 (SiHa; [4]) [nM] | IC50 (HS578T; [5]) [nM] | IC50 (HCT116 ARID1A^-/-; [6]) [nM] | IC50 (ID8-vegf) [nM] | IC50 (MM.1S; 48 h) [nM] | IC50 (TOV21G; [7]) [nM] | IC50 (HCT116 ARID1A^-/-; HCT-116, 48 h) [nM] | IC50 (PC3; PC-3, 48 h, read-out: IC50 PC3) [nM] | IC50 (PC3; [8]) [nM] | also measured
1 | C[C@H]1/C(=C\c2ccc([N+](=O)[O-])cc2)C(=O)/C(=C/c2ccc([N+](=O)[O-])cc2)CN1C(=O)[C@@H](N)Cc1ccccc1 | 27 | reduced intracellular GSH concentrations | 41 | 55 | raised the level of ROS in a dose-dependent manner | reduced bioluminescence | 125 | 78 | 3.6 | significantly increased CHOP10 transcript levels | 34 | – | – | – | – | – | – | – | – | –
2 | CC(C)C[C@H](NC(=O)[C@H](Cc1ccccc1)NC(=O)c1cnccn1)B(O)O [Bortezomib, bortezomib, reference compound] | – | reduced intracellular GSH concentrations | 31 | – | raised the level of ROS in a dose-dependent manner | not evident | < 20 | – | – | significantly increased CHOP10 transcript levels | – | 13 | 2.8 | 1.5 | – | – | – | – | – | –
3 | N[C@@H](Cc1ccccc1)C(=O)N1C/C(=C\c2ccc([N+](=O)[O-])cc2)C(=O)/C(=C/c2ccc([N+](=O)[O-])cc2)C1 [RA183, reference compound] | 312 | – | – | – | raised the level of ROS in a dose-dependent manner | reduced bioluminescence | – | 150 | 53 | – | 263 | 89 | – | 198 | 46 | 44 | 155 | 133 | 133 | IC50 (CaSki; read-out: IC50 CaSki, Table 3, MTT, 48 hr, Cervical (HPV +ve)): 312 nM; IC50 (HS578T; read-out: IC50 HS578T, Table 3, MTT, 48 hr, Triple Negative Breast): 89 nM; IC50 (SiHa; read-out: IC50 SiHa, Table 3, MTT, 48 hr, Cervical (HPV +ve)): 263 nM
4 | N[C@@H](Cc1ccccc1)C(=O)N1C/C(=C\c2ccc(Cl)c(Cl)c2)C(=O)/C(=C/c2ccc(Cl)c(Cl)c2)C1 [RA190, reference compound] | 324 | – | 168 | – | – | – | 250 | 300 | 148 | – | 603 | 78 | 164 | 211 | – | 83 | – | – | 162 | IC50 (MM.1S; Table 3, MTT, 48 hr, Multiple Myeloma): 72 nM
5 | O=C(CCl)N[C@@H](Cc1ccccc1)C(=O)N1C/C(=C\c2ccc([N+](=O)[O-])cc2)C(=O)/C(=C/c2ccc([N+](=O)[O-])cc2)C1 [RA375] | 3 | – | – | 43 | – | – | – | – | – | – | – | – | – | – | 11 | – | 20 | 27 | – | IC50 (CaSki; read-out: IC50 CaSki): 43 nM; IC50 (FaDu; 48 h, read-out: IC50 FaDu): 142 nM; IC50 (TOV21G; read-out: IC50 TOV21G): 6 nM; fold less sensitive: parental HCT116 vs isogenic ARID1A knockout (HCT116 ARID1A^-/-): 4 fold; IC50 (SiHa; read-out: IC50 SiHa): 41 nM
6 | CC1/C(=C\c2ccc([N+](=O)[O-])cc2)C(=O)/C(=C/c2ccc([N+](=O)[O-])cc2)CN1C(=O)[C@H](Cc1ccccc1)NC(=O)CCl (stereo partly drawn) [RA414] | – | reduced intracellular GSH concentrations | 30 | < 40 | raised the level of ROS in a dose-dependent manner | – | – | 78 | 1.1 | significantly increased CHOP10 transcript levels | 7.5 | 1.5 | – | < 40 | – | – | – | – | 12 | –
